Experimental data published in patent publication US9120812B2, “Pyrimidooxazocine derivatives as mTOR-inhibitors” (SANOFI, priority 2012, dated 2015).

Experiments:
[1] = biological target: mTOR (human recombinant aa mTOR 1360-2549) (Homo sapiens (Human), UniProt P42345); assay: mTOR enzymatic test by TR-FRET (phosphorylation of GFP-4EBP1); type: biochemical
Procedure, shortened: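 TR-FRET detection of GFP-4EBP1 phosphorylation by a terbium-labelled anti-phospho-Thr46 antibody. Kinase reaction ran 30 min at room temperature, was quenched with EDTA (10 mM final) plus Tb-antibody (2 nM final) and left 60 min. Emission at 520 and 490 nm after 340 nm excitation, reported as the 520/490 ratio.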

[2] = biological target: PI3Kα (p110α/p85α) (Homo sapiens (Human), UniProt P42336); assay: PI3Kα enzymatic test by measuring the consumption of ATP; type: biochemical
Procedure, shortened: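 p110α/p85α (1.7 μg/ml) with 50 μM PIP2 and 2 μM ATP in pH 7.5 Tris buffer with EGTA, MgCl2, Chaps, DTT; reaction 90 min. Remaining ATP measured by luciferin/luciferase luminescence; IC50 from threefold serial dilutions spanning at least 10 000-fold.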

[3] = system: Akt-pS473 in U87MG cells; settings: Homo sapiens, U-87 MG, read-out: U87 Akt-pS473 % Inhibition or IC50, nM (IC50), U87MG cells
[4] = system: U87MG tumour cells; assay: Test of in vitro proliferation of U87MG tumour cells; type: cell-based; settings: Homo sapiens, U-87 MG, 72 h, U87MG cells, 72 hours; read-out: U87 Cell Proliferation IC50
Description: Model 4: Test of in vitro Proliferation of U87MG Tumour Cells.
The cell growth is determined with the reagent CellTiter 96 AQueous One Solution Cell Proliferation Assay from Promega (Cat. No. G3581).

Sequence of mTOR (human recombinant aa mTOR 1360-2549) (P42345 1360-2549): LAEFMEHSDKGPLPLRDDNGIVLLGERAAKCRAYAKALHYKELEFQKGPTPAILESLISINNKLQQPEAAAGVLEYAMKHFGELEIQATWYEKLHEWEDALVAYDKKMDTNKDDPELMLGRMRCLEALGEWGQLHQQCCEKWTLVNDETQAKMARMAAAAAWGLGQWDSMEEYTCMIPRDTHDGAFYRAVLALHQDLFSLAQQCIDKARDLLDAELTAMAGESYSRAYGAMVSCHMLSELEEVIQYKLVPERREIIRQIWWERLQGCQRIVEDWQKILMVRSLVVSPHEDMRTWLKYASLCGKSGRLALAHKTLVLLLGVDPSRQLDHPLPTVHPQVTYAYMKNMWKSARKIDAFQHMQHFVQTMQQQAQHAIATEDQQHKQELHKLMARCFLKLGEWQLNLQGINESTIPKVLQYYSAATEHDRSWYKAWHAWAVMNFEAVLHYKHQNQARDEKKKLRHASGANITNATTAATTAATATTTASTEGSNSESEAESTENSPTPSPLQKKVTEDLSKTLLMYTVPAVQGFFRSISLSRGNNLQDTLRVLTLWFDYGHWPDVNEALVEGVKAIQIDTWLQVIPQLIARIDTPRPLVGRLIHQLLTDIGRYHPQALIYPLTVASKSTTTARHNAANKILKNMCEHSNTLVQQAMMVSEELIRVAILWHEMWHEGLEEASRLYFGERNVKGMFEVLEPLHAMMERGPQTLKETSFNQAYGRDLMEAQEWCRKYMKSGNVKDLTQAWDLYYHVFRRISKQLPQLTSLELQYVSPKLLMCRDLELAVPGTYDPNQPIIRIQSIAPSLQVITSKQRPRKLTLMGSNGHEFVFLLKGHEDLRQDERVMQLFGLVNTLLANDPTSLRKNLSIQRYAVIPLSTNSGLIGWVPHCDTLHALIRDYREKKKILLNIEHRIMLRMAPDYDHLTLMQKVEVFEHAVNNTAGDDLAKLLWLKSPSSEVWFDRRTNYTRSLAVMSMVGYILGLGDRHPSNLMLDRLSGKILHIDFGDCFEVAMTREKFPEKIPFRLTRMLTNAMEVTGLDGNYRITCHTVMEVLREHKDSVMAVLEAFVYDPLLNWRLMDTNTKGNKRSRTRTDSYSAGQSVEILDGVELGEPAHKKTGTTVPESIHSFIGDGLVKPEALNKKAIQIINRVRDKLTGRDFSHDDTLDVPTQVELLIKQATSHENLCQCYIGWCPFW
Sequence of PI3Kα (p110α/p85α) (P42336 whole entry): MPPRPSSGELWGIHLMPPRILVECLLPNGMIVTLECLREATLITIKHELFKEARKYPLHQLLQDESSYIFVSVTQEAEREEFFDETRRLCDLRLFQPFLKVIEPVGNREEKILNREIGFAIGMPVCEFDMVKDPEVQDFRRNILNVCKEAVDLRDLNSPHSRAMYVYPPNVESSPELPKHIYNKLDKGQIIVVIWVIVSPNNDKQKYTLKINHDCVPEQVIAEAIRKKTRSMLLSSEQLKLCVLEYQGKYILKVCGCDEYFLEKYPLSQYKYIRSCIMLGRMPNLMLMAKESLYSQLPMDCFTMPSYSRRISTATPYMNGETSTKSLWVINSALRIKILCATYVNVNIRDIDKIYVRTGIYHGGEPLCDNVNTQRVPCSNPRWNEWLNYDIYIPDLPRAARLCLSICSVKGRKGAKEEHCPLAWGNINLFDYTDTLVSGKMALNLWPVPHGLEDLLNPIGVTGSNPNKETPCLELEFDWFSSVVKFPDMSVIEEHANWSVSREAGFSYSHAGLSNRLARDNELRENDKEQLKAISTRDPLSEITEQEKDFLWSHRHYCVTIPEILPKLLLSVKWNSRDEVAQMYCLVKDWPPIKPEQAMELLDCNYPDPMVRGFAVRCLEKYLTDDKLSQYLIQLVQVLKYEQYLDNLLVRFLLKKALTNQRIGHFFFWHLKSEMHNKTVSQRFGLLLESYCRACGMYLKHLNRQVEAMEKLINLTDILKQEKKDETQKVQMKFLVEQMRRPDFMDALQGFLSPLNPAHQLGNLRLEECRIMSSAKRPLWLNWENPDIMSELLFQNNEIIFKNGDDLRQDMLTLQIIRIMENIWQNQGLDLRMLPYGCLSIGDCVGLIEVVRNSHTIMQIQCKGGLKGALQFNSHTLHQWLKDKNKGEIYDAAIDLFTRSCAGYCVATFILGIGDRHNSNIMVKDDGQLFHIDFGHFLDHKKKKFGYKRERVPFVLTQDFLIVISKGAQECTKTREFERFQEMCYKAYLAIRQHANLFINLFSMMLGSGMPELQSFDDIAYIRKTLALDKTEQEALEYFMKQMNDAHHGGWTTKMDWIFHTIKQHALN
Sequence of PI3Kα (p110α/p85α) (P27986 whole entry partner): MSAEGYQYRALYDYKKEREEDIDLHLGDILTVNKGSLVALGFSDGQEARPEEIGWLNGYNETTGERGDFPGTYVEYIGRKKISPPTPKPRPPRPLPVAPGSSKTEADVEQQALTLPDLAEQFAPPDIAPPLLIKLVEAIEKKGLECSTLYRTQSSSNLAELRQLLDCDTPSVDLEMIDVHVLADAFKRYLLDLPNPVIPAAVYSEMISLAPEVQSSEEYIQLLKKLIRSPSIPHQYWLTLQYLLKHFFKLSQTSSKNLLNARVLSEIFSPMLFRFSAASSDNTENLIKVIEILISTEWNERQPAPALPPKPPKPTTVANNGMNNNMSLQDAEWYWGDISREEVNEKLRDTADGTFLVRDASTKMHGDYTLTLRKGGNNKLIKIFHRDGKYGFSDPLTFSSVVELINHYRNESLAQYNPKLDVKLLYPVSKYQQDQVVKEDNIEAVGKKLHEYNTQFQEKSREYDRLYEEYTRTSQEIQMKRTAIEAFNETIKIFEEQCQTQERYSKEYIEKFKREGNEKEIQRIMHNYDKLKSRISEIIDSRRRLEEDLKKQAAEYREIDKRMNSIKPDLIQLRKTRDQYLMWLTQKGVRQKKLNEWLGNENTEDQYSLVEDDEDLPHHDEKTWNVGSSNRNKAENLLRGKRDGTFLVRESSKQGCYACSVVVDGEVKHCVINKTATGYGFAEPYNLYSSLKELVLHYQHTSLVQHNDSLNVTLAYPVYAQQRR

Compound	IC50 [1] [nM]	PI3Ka IC50 [2] [nM]	IC50 [3] [nM]	IC50 [4] [nM]
CCN1CC(C)(C)Oc2nc(N3C4CCC3COC4)nc(-c3ccc(NC(=O)OCCO)cc3F)c2C1=O [Example 243, {4-[6-Ethyl-8,8-dimethyl-2-(3-oxa-8-azabicyclo[3.2.1]oct-8-yl)-5-oxo-5,6,7,8-tetrahydro-9-oxa-1,3,6-triazabenzocyclohepten-4-yl]-3-fluorophenyl}carbamic acid 2-hydroxyethyl ester]	63	3870	160	610
CCN1CC(C)(C)Oc2nc(N3CC4CCC(C3)O4)nc(-c3ccc(NC(=O)OCCO)cc3F)c2C1=O [Example 246, {4-[6-Ethyl-8,8-dimethyl-2-(8-oxa-3-azabicyclo[3.2.1]oct-3-yl)-5-oxo-5,6,7,8-tetrahydro-9-oxa-1,3,6-triazabenzocyclohepten-4-yl]-3-fluorophenyl}carbamic acid 2-hydroxyethyl ester]	82	>10000	240	1600
CCN1CC(C)(C)Oc2nc(N3CC4CCC(C3)O4)nc(-c3ccc(NC(=O)Nc4ccc(C#N)nc4)c(F)c3)c2C1=O [Example 247, 1-(6-Cyanopyridin-3-yl)-3-{4-[6-ethyl-8,8-dimethyl-2-(8-oxa-3-azabicyclo[3.2.1]oct-3-yl)-5-oxo-5,6,7,8-tetrahydro-9-oxa-1,3,6-triazabenzocyclohepten-4-yl]-2-fluorophenyl}urea]	26	7200	8	62
CC[C@H]1COCCN1c1ccc(NC(=O)Nc2ccc(-c3nc(N4CCOC[C@@H]4C)nc4c3C(=O)N(CC)CC(C)(C)O4)cc2F)cn1 [Example 248, 1-{4-[6-Ethyl-8,8-dimethyl-2-((S)-3-methylmorpholin-4-yl)-5-oxo-5,6,7,8-tetrahydro-9-oxa-1,3,6-triazabenzocyclohepten-4-yl]-2-fluorophenyl}-3-[6-((S)-3-ethylmorpholin-4-yl)pyridin-3-yl]urea]	68	>10000	29	96
CC[C@H]1COCCN1c1ccc(NC(=O)Nc2ccc(-c3nc(N4C5CCC4COC5)nc4c3C(=O)N(CC)CC(C)(C)O4)cc2F)cn1 [Example 249, 1-{4-[6-Ethyl-8,8-dimethyl-2-(3-oxa-8-azabicyclo[3.2.1]oct-8-yl)-5-oxo-5,6,7,8-tetrahydro-9-oxa-1,3,6-triazabenzocyclohepten-4-yl]-2-fluorophenyl}-3-[6-((S)-3-ethylmorpholin-4-yl)pyridin-3-yl]urea]	365	>10000	27	29
CCN1CC(C)(C)Oc2nc(N3CC4CCC(C3)O4)nc(-c3ccc(NC(=O)Nc4ccc(N5CCOCC5)cn4)cc3)c2C1=O [Example 250, 1-{4-[6-Ethyl-8,8-dimethyl-2-(8-oxa-3-azabicyclo[3.2.1]oct-3-yl)-5-oxo-5,6,7,8-tetrahydro-9-oxa-1,3,6-triazabenzocyclohepten-4-yl]phenyl}-3-(5-morpholin-4-ylpyridin-2-yl)urea]	36	>10000	38	100
CCN1CC(C)(C)Oc2nc(N3CC4CCC(C3)O4)nc(-c3ccc(NC(=O)Nc4ccc(N5CC6CCC(C5)O6)cn4)cc3)c2C1=O [Example 251, 1-{4-[6-Ethyl-8,8-dimethyl-2-(8-oxa-3-azabicyclo[3.2.1]oct-3-yl)-5-oxo-5,6,7,8-tetrahydro-9-oxa-1,3,6-triazabenzocyclohepten-4-yl]phenyl}-3-[5-(8-oxa-3-azabicyclo[3.2.1]oct-3-yl)pyridin-2-yl]urea]	64	>10000	80	340
CCN1CC(C)(C)Oc2nc(N3CCOC[C@@H]3C)nc(-c3ccc(NC(=O)Nc4ccc(N5C[C@@H]6C[C@H]5CO6)nc4)c(F)c3)c2C1=O [Example 252, 1-{4-[6-Ethyl-8,8-dimethyl-2-((S)-3-methylmorpholin-4-yl)-5-oxo-5,6,7,8-tetrahydro-9-oxa-1,3,6-triazabenzocyclohepten-4-yl]-2-fluorophenyl}-3-[(1S,4S)-6-(2-oxa-5-azabicyclo[2.2.1]hept-5-yl)pyridin-3-yl]urea]	68	1360	48	282
CCN1CC(C)(C)Oc2nc(N3C4CCC3COC4)nc(-c3ccc(NC(=O)Nc4ccc(N5C[C@@H]6C[C@H]5CO6)nc4)c(F)c3)c2C1=O [Example 253, 1-{4-[6-Ethyl-8,8-dimethyl-2-(3-oxa-8-azabicyclo[3.2.1]oct-8-yl)-5-oxo-5,6,7,8-tetrahydro-9-oxa-1,3,6-triazabenzocyclohepten-4-yl]-2-fluorophenyl}-3-[(1S,4S)-6-(2-oxa-5-azabicyclo[2.2.1]hept-5-yl)pyridin-3-yl]urea]	72	>10000	68	167
CCN1CC(C)(C)Oc2nc(N3C4CCC3COC4)nc(-c3ccc(NC(=O)NC4CC4)c(F)c3)c2C1=O [Example 254, 1-Cyclopropyl-3-{4-[6-ethyl-8,8-dimethyl-2-(3-oxa-8-azabicyclo[3.2.1]oct-8-yl)-5-oxo-5,6,7,8-tetrahydro-9-oxa-1,3,6-triazabenzocyclohepten-4-yl]-2-fluorophenyl}urea]	68	>10000	68	240
CCNC(=O)Nc1ccc(-c2nc(N3C4CCC3COC4)nc3c2C(=O)N(CC)CC(C)(C)O3)cc1F [Example 255, 1-Ethyl-3-{4-[6-ethyl-8,8-dimethyl-2-(3-oxa-8-azabicyclo[3.2.1]oct-8-yl)-5-oxo-5,6,7,8-tetrahydro-9-oxa-1,3,6-triazabenzocyclohepten-4-yl]-2-fluorophenyl}urea]	72	>10000	68	210
CCN1CC(C)(C)Oc2nc(N3CCOC[C@@H]3C)nc(-c3ccc(NC(=O)Nc4ccc(N5CCOCC5(C)C)nc4)c(F)c3)c2C1=O [Example 256, 1-[6-(3,3-Dimethylmorpholin-4-yl)pyridin-3-yl]-3-{4-[6-ethyl-8,8-dimethyl-2-((S)-3-methylmorpholin-4-yl)-5-oxo-5,6,7,8-tetrahydro-9-oxa-1,3,6-triazabenzocyclohepten-4-yl]-2-fluorophenyl}urea]	196	199	42	83
CCN1CC(C)(C)Oc2nc(N3C4CCC3COC4)nc(-c3ccc(NC(=O)Nc4ccc(N5CCOCC5(C)C)nc4)c(F)c3)c2C1=O [Example 257, 1-[6-(3,3-Dimethylmorpholin-4-yl)pyridin-3-yl]-3-{4-[6-ethyl-8,8-dimethyl-2-(3-oxa-8-azabicyclo[3.2.1]oct-8-yl)-5-oxo-5,6,7,8-tetrahydro-9-oxa-1,3,6-triazabenzocyclohepten-4-yl]-2-fluorophenyl}urea]	142	>10000	46	63
